According to patent US8592629B2, “Sulfonamide derivatives as Nav 1.7 inhibitors” (Pfizer Limited, priority 2010, dated 2013):
Where a name gives a salt, the structure may show the parent alone.

Target: T1, Nav1.7 (or SCN9A) channel (Homo sapiens, UniProt Q15858)
T1 construct: expressed in transfected cells
Assay: Nav1.7 (hSCN9A) block in HEK cells, PatchXpress 7000 automated electrophysiology, estimated IC50 (EIC50)
Assay type: cell-based
Conditions: PatchXpress assay; HEK cells stably transfected with hSCN9A, voltage-clamped at V1/2 of inactivation
Protocol: The ability of the compounds of formula (I) to block the Nav1.7 (or SCN9A) channel were measured using the assay described below.
Human Embryonic Kidney (HEK) cells were transfected with an hSCN9A construct using lipofectamine reagent (Invitrogen), using standard techniques. Cells stably expressing the hSCN9A constructs were identified by their resistance to G-418 (400 μg/ml). Clones were screened for expression using the whole-cell voltage-clamp technique.
HEK cells stably transfected with hSCN9A were maintained in DMEM medium supplemented with 10% heat-inactivated fetal bovine serum and 400 μg/ml G-418 in an incubator at 37° C. with a humidified atmosphere of 10% CO2. For HTS, cells were harvested from flasks by trypsinization and replated in an appropriate multi-well plate (typically 96 or 384 wells/plate) such that confluence would be achieved within 24 hours of plating. For electrophysiological studies, cells were removed from the culture flask by brief trypsinization and re-plated at low density onto glass cover slips. Cells were typically used for electrophysiological experiments within 24 to 72 hours after plating.
HEK cells stably transfected with hSCN9A were viewed under Hoffman contrast optics and placed in front of an array of flow pipes emitting either control or compound-containing extracellular solutions. All compounds were dissolved in dimethyl sulfoxide to make 10 mM stock solutions, which were then diluted into extracellular solution to attain the final concentrations desired. […] The voltage-dependence of inactivation was determined by applying a series of depolarizing prepulses (8 sec long in 10 mV increments) from a negative holding potential. The voltage was then immediately stepped to 0 mV to assess the magnitude of the sodium current. Currents elicited at 0 mV were plotted as a function of prepulse potential to allow estimation of the voltage at which 50% of the channels were inactivated (midpoint of inactivation or V1/2). Compounds were tested for their ability to inhibit hSCN9A sodium channels by activating the channel with a 20 msec voltage step to 0 mV following an 8 second conditioning prepulse to the empirically determined V1/2. Compound effect (% inhibition) was determined by difference in current amplitude before and after application of test compounds. For ease of comparison, “estimated IC-50” (EIC50) values were calculated from single point electrophysiology data by the following equation, (tested concentration, uM) X (100-% inhibition/% inhibition). Inhibition values <20% and >80% were excluded from the calculation.
Electrophysiological assays were conducted with PatchXpress 7000 hardware and associated software (Molecular Devices Corp). All assay buffers and solutions were identical to those used in conventional whole-cell voltage clamp experiments described above. hSCN9A cells were grown as above to 50%-80% confluency and harvested by trypsinization. Trypsinized cells were washed and resuspended in extracellular buffer at a concentration of 1×10^6 cells/ml. The onboard liquid handling facility of the PatchXpress was used for dispensing cells and application of test compounds. Determination of the voltage midpoint of inactivation was as described for conventional whole-cell recordings. Cells were then voltage-clamped to the empirically determined V1/2 and current was activated by a 20 msec voltage step to 0 mV.
Compounds of the Examples were tested in the assays described above and found to have the Nav1.7 EIC50 (μM) values specified in the table below. All data are derived from the PatchXpress assay unless explicitly stated otherwise.

T1 sequence (Q15858 whole entry): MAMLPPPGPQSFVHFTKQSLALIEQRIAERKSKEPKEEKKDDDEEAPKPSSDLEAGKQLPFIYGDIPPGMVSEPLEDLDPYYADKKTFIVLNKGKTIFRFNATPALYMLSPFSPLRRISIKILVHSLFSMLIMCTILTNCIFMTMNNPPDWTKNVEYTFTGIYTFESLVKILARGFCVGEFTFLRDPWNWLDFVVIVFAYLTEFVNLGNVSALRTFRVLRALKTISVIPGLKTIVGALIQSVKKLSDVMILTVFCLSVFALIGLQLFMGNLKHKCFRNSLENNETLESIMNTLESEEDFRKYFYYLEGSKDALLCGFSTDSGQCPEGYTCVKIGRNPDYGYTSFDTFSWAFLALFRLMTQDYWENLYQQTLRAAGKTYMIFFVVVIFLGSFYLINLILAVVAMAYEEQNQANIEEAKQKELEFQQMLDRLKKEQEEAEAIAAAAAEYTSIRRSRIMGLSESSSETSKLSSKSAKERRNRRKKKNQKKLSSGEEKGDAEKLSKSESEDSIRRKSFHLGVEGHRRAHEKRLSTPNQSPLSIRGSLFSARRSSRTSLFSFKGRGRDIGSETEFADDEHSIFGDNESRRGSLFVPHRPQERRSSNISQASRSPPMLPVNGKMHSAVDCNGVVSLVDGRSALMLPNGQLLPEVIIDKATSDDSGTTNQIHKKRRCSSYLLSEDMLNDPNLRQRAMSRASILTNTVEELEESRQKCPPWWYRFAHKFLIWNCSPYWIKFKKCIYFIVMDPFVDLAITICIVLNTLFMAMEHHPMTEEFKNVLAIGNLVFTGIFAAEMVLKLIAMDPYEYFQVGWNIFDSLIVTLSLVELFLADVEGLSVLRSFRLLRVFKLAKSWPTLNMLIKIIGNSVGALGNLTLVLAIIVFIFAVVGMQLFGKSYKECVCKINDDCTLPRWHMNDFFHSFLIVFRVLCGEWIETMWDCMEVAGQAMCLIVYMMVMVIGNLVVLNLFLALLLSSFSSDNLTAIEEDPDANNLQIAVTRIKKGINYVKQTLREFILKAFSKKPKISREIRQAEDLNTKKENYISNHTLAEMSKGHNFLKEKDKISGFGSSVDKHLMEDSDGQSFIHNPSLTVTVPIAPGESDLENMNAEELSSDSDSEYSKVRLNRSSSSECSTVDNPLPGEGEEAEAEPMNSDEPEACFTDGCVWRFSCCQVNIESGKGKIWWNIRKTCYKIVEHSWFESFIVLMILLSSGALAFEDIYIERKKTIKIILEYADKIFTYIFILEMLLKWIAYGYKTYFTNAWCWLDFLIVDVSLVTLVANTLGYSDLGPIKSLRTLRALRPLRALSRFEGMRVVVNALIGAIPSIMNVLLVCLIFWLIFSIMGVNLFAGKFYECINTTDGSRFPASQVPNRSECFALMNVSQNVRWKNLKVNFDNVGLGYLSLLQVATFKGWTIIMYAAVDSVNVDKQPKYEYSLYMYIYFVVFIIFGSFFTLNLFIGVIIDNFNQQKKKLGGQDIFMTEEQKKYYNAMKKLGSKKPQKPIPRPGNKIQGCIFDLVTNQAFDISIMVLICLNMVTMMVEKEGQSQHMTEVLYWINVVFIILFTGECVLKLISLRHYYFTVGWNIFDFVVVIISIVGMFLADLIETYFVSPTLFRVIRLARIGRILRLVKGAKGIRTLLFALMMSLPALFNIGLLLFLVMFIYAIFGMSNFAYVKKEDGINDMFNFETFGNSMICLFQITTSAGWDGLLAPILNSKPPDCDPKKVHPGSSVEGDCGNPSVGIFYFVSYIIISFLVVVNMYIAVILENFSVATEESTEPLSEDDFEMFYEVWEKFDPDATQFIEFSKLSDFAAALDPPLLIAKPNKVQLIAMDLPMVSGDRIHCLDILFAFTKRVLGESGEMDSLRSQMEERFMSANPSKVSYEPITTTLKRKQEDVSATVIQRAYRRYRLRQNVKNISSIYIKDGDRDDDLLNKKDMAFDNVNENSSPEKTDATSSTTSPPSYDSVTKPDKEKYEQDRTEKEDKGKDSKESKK

SMILES | IC50
[2H]C([2H])([2H])C([2H])(Oc1ncc(Oc2cc(F)c(C(=O)NS(C)(=O)=O)cc2Cl)cc1Cl)C([2H])([2H])[2H] (single isomer, unassigned) [Example 42, 5-chloro-4-({5-chloro-6-[d7-propan-2-yloxy]pyridin-3-yl}oxy)-2-fluoro-N-(methylsulfonyl)benzamide] | 31 nM
[2H]C(C)(C)Oc1ncc(Oc2cc(F)c(C(=O)NS(C)(=O)=O)cc2Cl)cc1Cl (single isomer, unassigned) [Example 46, 5-chloro-4-({5-chloro-6-[2-d1-propan-2-yloxy]pyridin-3-yl}oxy)-2-fluoro-N-(methylsulfonyl)benzamide] | 110 nM
CC(C)COc1ncc(Oc2ccc(C(=O)NS(C)(=O)=O)cc2C#N)cc1Cl [Example 1, 4-[(5-Chloro-6-isobutoxypyridin-3-yl)oxy]-3-cyano-N-(methylsulfonyl)benzamide] | 160 nM
CS(=O)(=O)NC(=O)c1ccc(Oc2cnc(N3CCCCC3)nc2)c(Cl)c1 [Example 4, 3-Chloro-N-(methylsulfonyl)-4-[(2-piperidin-1-ylpyrimidin-5-yl)oxy]benzamide] | 300 nM
CC(C)(F)c1ncc(Oc2cc(F)c(C(=O)NS(C)(=O)=O)cc2Cl)cc1Cl [Example 7, 5-Chloro-4-{[5-chloro-6-(1-fluoro-1-methylethyl)pyridin-3-yl]oxy}-2-fluoro-N-(methylsulfonyl)benzamide] | 290 nM
CC(C)Oc1ncc(Oc2cc(F)c(C(=O)NS(C)(=O)=O)cc2Cl)cc1C#N [Example 8, 5-Chloro-4-[(5-cyano-6-isopropoxypyridin-3-yl)oxy]-2-fluoro-N-(methylsulfonyl)benzamide] | 240 nM
CS(=O)(=O)NC(=O)c1ccc(Oc2cnc(C(F)(F)F)c(Cl)c2)cc1 [Example 9, 4-{[5-Chloro-6-(trifluoromethyl)pyridin-3-yl]oxy}-N-(methylsulfonyl)benzamide] | > 1000 nM
CS(=O)(=O)NC(=O)c1cc(Cl)c(Oc2cnc(OCCC(F)(F)F)c(Cl)c2)cc1F [Example 13, 5-Chloro-4-{[5-chloro-6-(3,3,3-trifluoropropoxy)pyridin-3-yl]oxy}-2-fluoro-N-(methylsulfonyl)benzamide] | 50 nM
CC(C)COc1ncc(Oc2ccc(C(=O)NS(C)(=O)=O)cc2)cc1Cl [Example 14, 4-[(5-Chloro-6-isobutoxypyridin-3-yl)oxy]-N-(methylsulfonyl)benzamide] | 140 nM
CS(=O)(=O)NC(=O)c1cc(F)c(Oc2cnc(OC3CCC3)c(Cl)c2)cc1F [Example 16, 4-(5-Chloro-6-cyclobutoxypyridin-3-yloxy)-2,5-difluoro-N-(methylsulfonyl)benzamide] | 130 nM
CCC(C)S(=O)(=O)NC(=O)c1cc(F)c(Oc2cnc(OC)c(Cl)c2)cc1F (stereo not drawn) [Example 18, N-(sec-butylsulfonyl)-4-[(5-chloro-6-methoxypyridin-3-yl)oxy]-2,5-difluorobenzamide] | 970 nM
CC(C)n1ncc2cc(Oc3cc(F)c(C(=O)NS(C)(=O)=O)cc3Cl)ccc21 [Example 20, 5-Chloro-2-fluoro-4-[(1-isopropyl-1H-indazol-5-yl)oxy]-N-(methylsulfonyl)benzamide] | > 3000 nM
CS(=O)(=O)NC(=O)c1cc(Cl)c(Oc2cnc(C3CC3)c(Cl)c2)cc1F [Example 21, 5-chloro-4-[(5-chloro-6-cyclopropylpyridin-3-yl)oxy]-2-fluoro-N-(methanesulfonyl)benzamide] | 30 nM
CS(=O)(=O)NC(=O)c1cc(Cl)c(Oc2cnc(OCC(F)(F)C(F)F)c(Cl)c2)cc1F [Example 22, 5-chloro-4-{[5-chloro-6-(2,2,3,3-tetrafluoropropoxy)pyridin-3-yl]oxy}-2-fluoro-N-(methanesulfonyl)benzamide] | 19 nM
CC(C)COc1ncc(Oc2cc(F)c(C(=O)NS(C)(=O)=O)cc2F)cc1Cl [Example 23, 4-[(5-chloro-6-isobutoxypyridin-3-yl)oxy]-2,5-difluoro-N-(methylsulfonyl)benzamide] | 39 nM
CS(=O)(=O)NC(=O)c1cc(F)c(Oc2cnc(C(F)(F)F)nc2)cc1F [Example 26, 2,5-difluoro-N-(methylsulfonyl)-4-{[2-(trifluoromethyl)pyrimidin-5-yl]oxy}benzamide] | > 10000 nM
CC(C)Oc1ncc(Oc2cc(F)c(C(=O)NS(C)(=O)=O)c(F)c2F)cc1Cl [Example 29, 4-[(5-chloro-6-isopropoxypyridin-3-yl)oxy]-2,3,6-trifluoro-N-(methylsulfonyl)benzamide] | 2300 nM
CC(C)Oc1ncc(Oc2c(F)cc(C(=O)NS(C)(=O)=O)cc2F)cc1Cl [Example 32, 4-[(5-chloro-6-isopropoxypyridin-3-yl)oxy]-3,5-difluoro-N-(methylsulfonyl)benzamide] | 340 nM
CC(C)Oc1ncc(Oc2ccc(C(=O)NS(C)(=O)=O)cc2F)cc1Cl [Example 33, 4-[(5-chloro-6-isopropoxypyridin-3-yl)oxy]-3-fluoro-N-(methylsulfonyl)benzamide] | 700 nM
CC(C)(C)Oc1ncc(Oc2cc(F)c(C(=O)NS(C)(=O)=O)cc2F)cc1Cl [Example 34, 4-[(6-tert-butoxy-5-chloropyridin-3-yl)oxy]-2,5-difluoro-N-(methylsulfonyl)benzamide] | 33 nM

Results, then the compound that gave them:

IC50 | SMILES
91 nM | CS(=O)(=O)NC(=O)c1cc(F)c(Oc2cnc(OCC3CC(F)(F)C3)c(Cl)c2)cc1F [Example 2, 4-({5-Chloro-6-[(3,3-difluorocyclobutyl)methoxy]pyridin-3-yl}oxy)-2,5-difluoro-N-(methylsulfonyl)benzamide]
41 nM | CC(C)Oc1ncc(Oc2cc(F)c(C(=O)NS(C)(=O)=O)cc2F)cc1Cl [Example 3, 4-[(5-Chloro-6-isopropoxypyridin-3-yl)oxy]-2,5-difluoro-N-(methylsulfonyl)benzamide]
900 nM | CS(=O)(=O)NC(=O)c1cc(Cl)c(Oc2cnc(OC3COC3)c(Cl)c2)cc1F [Example 10, 5-Chloro-4-{[5-chloro-6-(oxetan-3-yloxy)pyridin-3-yl]oxy}-2-fluoro-N-(methylsulfonyl)benzamide]
120 nM | CC(Oc1ncc(Oc2cc(F)c(C(=O)NS(C)(=O)=O)cc2F)cc1Cl)C(F)(F)F (stereo not drawn) [Example 12, 4-{[5-Chloro-6-(2,2,2-trifluoro-1-methylethoxy)pyridin-3-yl]oxy}-2,5-difluoro-N-(methylsulfonyl)benzamide]
4600 nM | COc1ncc(Oc2cc(F)c(C(=O)NS(=O)(=O)C3CC3)cc2F)cc1Cl [Example 15, 4-(5-Chloro-6-methoxypyridin-3-yloxy)-N-(cyclopropylsulfonyl)-2,5-difluorobenzamide diethylamine salt]
780 nM | CS(=O)(=O)NC(=O)c1cc(F)c(Oc2cnc(OC3CCOCC3)c(Cl)c2)cc1F [Example 24, 4-{[5-chloro-6-(tetrahydro-2H-pyran-4-yloxy)pyridin-3-yl]oxy}-2,5-difluoro-N-(methylsulfonyl)benzamide]
9800 nM | COc1ncc(Oc2cc(F)c(C(=O)NS(C)(=O)=O)cc2F)cc1Cl [Example 25, 4-[(5-chloro-6-methoxypyridin-3-yl)oxy]-2,5-difluoro-N-(methylsulfonyl)benzamide]
220 nM | CS(=O)(=O)NC(=O)c1cc(F)c(Oc2cnc(OCC(F)(F)F)c(Cl)c2)cc1F [Example 27, 4-{[5-chloro-6-(2,2,2-trifluoroethoxy)pyridin-3-yl]oxy}-2,5-difluoro-N-(methylsulfonyl)benzamide]
33 nM | CC1(COc2ncc(Oc3cc(F)c(C(=O)NS(C)(=O)=O)cc3F)cc2Cl)CC1 [Example 28, 4-({5-chloro-6-[(1-methylcyclopropyl)methoxy]pyridin-3-yl}oxy)-2,5-difluoro-N-(methylsulfonyl)benzamide]
7600 nM | CN1CCC(Oc2ncc(Oc3cc(F)c(C(=O)NS(C)(=O)=O)cc3Cl)cc2Cl)CC1 [Example 30, 5-chloro-4-({5-chloro-6-[(1-methylpiperidin-4-yl)oxy]pyridin-3-yl}oxy)-2-fluoro-N-(methylsulfonyl)benzamide]
